Test results taken from ChEMBL document CHEMBL1201862, “PubChem BioAssay data set” (2004).
Active and inactive are the calls of the source.

Tests used:
[1] = alpha-synuclein stem-loop luciferase translation blockers – H4 neuroglioma cells, luminescence, confirmation (AID 1988); assay type: functional, cell-based
[2] = blockers of bursicon-stimulated LGR2 cAMP reporter – cell-based, HEK293, CRE-luciferase reporter, cherry pick, set 2, dose response (AID 743343); assay type: functional;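 further: transfected cells were stimulated with diluted bursicon conditioned medium after compound addition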
[3] = viability loss in HEK293 cells – cell-based, plate reader, cherry-picked samples, cytotoxicity control, dose response (AID 743446); assay type: functional
[4] = biological target: T1, Microphthalmia-associated transcription factor (Homo sapiens, UniProt O75030); assay: reducers of TRPM1 reporter luminescence, concentration series – cell-based, SK-MEL-5, cherry-picked, set 3, MITF inhibitor project, dose response (AID 493073); assay type: functional;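 further: SK-MEL-5 melanoma cells with luciferase driven by the MITF target TRPM1 promoter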
T1 sequence (O75030 whole entry): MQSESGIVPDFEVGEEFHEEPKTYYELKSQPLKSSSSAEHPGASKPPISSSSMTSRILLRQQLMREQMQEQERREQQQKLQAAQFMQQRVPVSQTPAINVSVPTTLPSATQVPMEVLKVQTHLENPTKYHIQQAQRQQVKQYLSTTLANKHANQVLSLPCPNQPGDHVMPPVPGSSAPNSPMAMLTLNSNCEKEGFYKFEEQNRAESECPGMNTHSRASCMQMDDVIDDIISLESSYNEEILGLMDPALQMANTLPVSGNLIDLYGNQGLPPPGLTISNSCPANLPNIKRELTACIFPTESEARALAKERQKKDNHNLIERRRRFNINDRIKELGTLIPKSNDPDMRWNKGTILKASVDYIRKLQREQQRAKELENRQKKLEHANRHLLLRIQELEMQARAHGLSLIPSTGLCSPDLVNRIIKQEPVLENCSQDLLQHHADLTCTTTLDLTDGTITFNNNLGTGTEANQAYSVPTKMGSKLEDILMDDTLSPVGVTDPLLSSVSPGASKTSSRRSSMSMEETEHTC

[5] = Luminescence Cell-Based Dose Response HTS to Identify Inhibitors of 5'UTR Stem-Loop Driven Prion Protein mRNA Translation in H4 Neuroglioblastoma Cells. [Related pubchem assays: 1827 (Project Summary), 1813 (Primary HTS)]; assay type: functional
[6] = A549 cell cytotoxicity, dose response, cytotoxicity control, plate reader, cherry-pick, antagonist series (AID 743412); assay type: functional, cell-based
cells = assay type: functional, cell-based
[7] = biological target: 5-hydroxytryptamine receptor 5A (Homo sapiens, UniProt P47898); assay: Counterscreen for agonists of OPRM1-OPRD1 heterodimerization: luminescence-based cell-based high throughput dose response assay to identify agonists of 5-hydroxytryptamine (serotonin) 5A receptor (HTR5A). [Related pubchem assays (depositor defined):AID504326, AID504355, AID504692, AID504904, AID504905]; assay type: functional
[8] = alpha-synuclein stem-loop translation blockers – luminescence, H4 neuroglioblastoma cells, dose confirmation, confirmation (AID 2454); assay type: functional, cell-based;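 further: H4 neuroglioblastoma cells carrying an alpha-synuclein 5'UTR luciferase reporter; potency for inhibition of the luciferase signal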
[9] = luciferase reporter signal reduction – luminescence, H4-C neuroglioblastoma cells, dose response (AID 2458); assay type: functional, cell-based;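 further: H4 neuroglioblastoma cells stably carrying a luciferase reporter gene fusion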
[10] = blockade of melanocortin 4 receptor signaling – cell-based, plate reader, cherry pick, counter-screen for LGR2 antagonist project, dose response (AID 743444); assay type: functional;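 further: transfected HEK 293 cells stimulated with alpha-MSH peptide; potency of inhibitors of the alpha-MSH evoked signal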
[11] = toxicity toward HepG2 liver cells – cell-based, plate reader, cherry-pick, antagonist series, cytotoxicity control, dose response (AID 743416); assay type: functional
Mu-type opioid receptor = Mu-type opioid receptor (Homo sapiens, UniProt P35372); assay: (§1) Counterscreen for agonists of heterodimerization of the mu 1 (OPRM1) and delta 1 (OPRD1) opioid receptors: Luminescence-based cell-based high throughput dose response assay to identify agonists of OPRM1 homodimerization.; assay type: functional
[12] = biological target: Delta-type opioid receptor (Homo sapiens, UniProt P41143); assay: as §1, with “of OPRD1” for “of OPRM1”, “homodimerization. [Related pubchem assays (depositor defined):AID504326, AID504355, AID504692, AID504904, AID504905]” for “homodimerization.”; assay type: functional
[13] = luciferase reporter signal suppression in cells – H4 neuroglioma cells, luminescence, dose response (AID 1990); assay type: functional, cell-based
H4 = assay: Luminescence Cell-Based Dose Response HTS to Identify Activators of 5'UTR Stem-Loop Driven Prion Protein mRNA Translation in H4 Neuroglioblastoma Cells. [Related pubchem assays: 1829 (Project Summary), 1814 (Primary HTS)]; assay type: functional; conditions: Homo sapiens
HEK293 = assay: cells; assay type: functional, cell-based; conditions: Homo sapiens
[14] = Luminescence Cell-Based Dose Response HTS to Identify Activators of Luciferase Translation or Activity in H4 […] Cells. [Related pubchem assays: 1829 (Project Summary), 1814 (Primary HTS)]; assay type: functional
[15] = biological target: T2, Nuclear receptor subfamily 0 group B member 1 (Homo sapiens, UniProt P51843); assay: Luminescence-based cell-based high throughput dose response assay for inhibitors of the orphan nuclear receptor subfamily 0, group B, member 1 (DAX1; NR0B1). [Related pubchem assays (depositor defined):AID504766, AID504790]; assay type: functional
T2 sequence (P51843 whole entry): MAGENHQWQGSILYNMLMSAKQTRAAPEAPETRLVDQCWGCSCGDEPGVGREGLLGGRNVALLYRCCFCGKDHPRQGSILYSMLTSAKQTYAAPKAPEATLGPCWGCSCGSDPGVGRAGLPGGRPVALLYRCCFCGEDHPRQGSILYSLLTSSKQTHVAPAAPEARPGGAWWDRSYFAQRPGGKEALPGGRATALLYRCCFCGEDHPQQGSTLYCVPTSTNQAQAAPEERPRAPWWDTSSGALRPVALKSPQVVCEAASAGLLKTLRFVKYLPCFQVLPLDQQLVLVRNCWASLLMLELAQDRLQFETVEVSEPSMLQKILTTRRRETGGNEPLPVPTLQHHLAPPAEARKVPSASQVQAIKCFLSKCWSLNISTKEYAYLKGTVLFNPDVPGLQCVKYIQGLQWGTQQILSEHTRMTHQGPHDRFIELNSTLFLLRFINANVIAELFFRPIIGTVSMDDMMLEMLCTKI

A-375 = assay: proliferation inhibition in MITF-low A375 cells – cell-based, cherry-pick samples, set 2, counter-screen for MITF modulator project, dose response (AID 540335); assay type: functional; conditions: Homo sapiens
Protein Wnt-3a = Protein Wnt-3a (Mus musculus, UniProt P27467); assay: antagonism of Wnt3a pathway luciferase reporter – Wnt-LIGHT cells, luminescence, selectivity assay for Gli-SUFU antagonist project, dose response (AID 651570); assay type: functional; conditions: read-out: IC50_Mean;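 further: Wnt-LIGHT reporter cells stimulated with conditioned medium from Wnt3a-producing cells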
[16] = viability of PTEN-deleted HCT116 cells – cell-based, HCT116 PTEN knockout, dose response (AID 1047); assay type: functional;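 further: HCT116 colon tumor cells with PTEN knocked out; cells exposed to compound for 60 hours before readout; potency for loss of cell viability measured by luminescence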
[17] = viability of HCT116 lacking mutant beta-catenin – cell-based, human colon tumor, dose response (AID 1045); assay type: functional;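 further: HCT116 colon tumor cells with beta catenin knocked out; cells exposed to compound for 60 hours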
BJ [18] = assay: cells; assay type: functional, cell-based; conditions: Homo sapiens
BJ [19] = assay: BJ-TERT-LT-ST fibroblast viability loss – cell-based, RAS-independent, luminescence, dose response (AID 1935); assay type: functional; conditions: Homo sapiens;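 further: BJ fibroblasts immortalized with TERT plus LT and ST oncogenes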
BJ [20] = assay: growth inhibition of engineered Ras-driven BJ cells – cell-based, alamar blue fluorescence, cherrypicked samples, dose response (AID 2631); assay type: functional; conditions: Homo sapiens;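 further: confirmatory dose-response assay in RAS-dependent BJ fibroblasts engineered with TERT, LT and ST, with cytotoxicity read by fluorescence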
[21] = DRD fibroblast viability loss – cell-based, non-viral oncogenic, luminescence, dose response (AID 1934); assay type: functional; conditions: Homo sapiens
BJ [22] = assay: BJ-TERT fibroblast viability loss – cell-based, RAS-independent, luminescence, dose response (AID 1933); assay type: functional; conditions: Homo sapiens

Sequence of Mu-type opioid receptor (P35372 whole entry): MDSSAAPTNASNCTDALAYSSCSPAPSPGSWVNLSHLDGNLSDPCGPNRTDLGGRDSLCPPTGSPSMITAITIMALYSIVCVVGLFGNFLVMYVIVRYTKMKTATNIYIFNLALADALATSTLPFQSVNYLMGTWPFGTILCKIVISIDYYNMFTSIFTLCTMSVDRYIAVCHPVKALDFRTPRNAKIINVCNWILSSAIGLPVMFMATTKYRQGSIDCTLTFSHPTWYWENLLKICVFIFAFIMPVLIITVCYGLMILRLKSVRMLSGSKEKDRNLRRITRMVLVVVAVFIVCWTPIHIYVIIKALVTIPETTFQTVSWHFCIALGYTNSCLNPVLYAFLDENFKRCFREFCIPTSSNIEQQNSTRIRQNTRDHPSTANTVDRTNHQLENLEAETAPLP
Sequence of Delta-type opioid receptor (P41143 whole entry): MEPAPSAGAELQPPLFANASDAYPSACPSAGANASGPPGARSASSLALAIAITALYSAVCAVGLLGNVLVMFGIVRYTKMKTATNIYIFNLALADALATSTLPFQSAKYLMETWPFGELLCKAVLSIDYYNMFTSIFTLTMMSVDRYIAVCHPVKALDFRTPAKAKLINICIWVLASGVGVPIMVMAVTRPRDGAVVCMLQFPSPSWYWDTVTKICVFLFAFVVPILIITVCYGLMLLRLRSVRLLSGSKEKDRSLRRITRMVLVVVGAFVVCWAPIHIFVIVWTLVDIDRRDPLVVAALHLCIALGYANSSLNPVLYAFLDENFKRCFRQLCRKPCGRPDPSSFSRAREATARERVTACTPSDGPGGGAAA
Sequence of Protein Wnt-3a (P27467 whole entry): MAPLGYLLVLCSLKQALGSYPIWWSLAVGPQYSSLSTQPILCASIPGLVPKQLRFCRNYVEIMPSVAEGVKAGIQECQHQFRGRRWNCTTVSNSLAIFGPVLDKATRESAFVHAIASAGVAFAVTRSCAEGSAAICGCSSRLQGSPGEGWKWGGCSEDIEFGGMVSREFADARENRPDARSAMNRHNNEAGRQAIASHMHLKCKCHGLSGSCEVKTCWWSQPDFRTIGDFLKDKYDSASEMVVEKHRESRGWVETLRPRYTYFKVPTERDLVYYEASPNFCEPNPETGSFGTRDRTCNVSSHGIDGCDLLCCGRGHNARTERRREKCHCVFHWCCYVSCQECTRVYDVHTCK
Sequence of 5-hydroxytryptamine receptor 5A (P47898 whole entry): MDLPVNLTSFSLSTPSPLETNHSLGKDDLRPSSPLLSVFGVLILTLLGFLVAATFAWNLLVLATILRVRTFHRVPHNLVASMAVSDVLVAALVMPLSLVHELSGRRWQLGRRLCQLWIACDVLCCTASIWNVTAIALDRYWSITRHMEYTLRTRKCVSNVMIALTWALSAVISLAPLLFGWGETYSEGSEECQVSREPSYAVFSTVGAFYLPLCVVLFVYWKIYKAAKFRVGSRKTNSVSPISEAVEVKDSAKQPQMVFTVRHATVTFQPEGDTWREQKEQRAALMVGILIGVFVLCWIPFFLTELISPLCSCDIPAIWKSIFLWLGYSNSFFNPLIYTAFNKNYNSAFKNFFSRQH

CC(=O)CSc1ccc(-c2nc3cc(C)c(C)cc3[nH]2)cn1
EC50 [1]: < 0.1 µM (active) | AC50 [2]: 0.82 µM (active) | AC50 [3]: 34.7 µM (active) | AC50 [4]: 3.67 µM (active) | EC50 [5]: 12.8 µM (active) | AC50 [6]: > 52 µM (inactive) | EC50 (cells): > 12 µM (inconclusive) | EC50 [7]: > 92.5 µM (inactive) | EC50 [8]: 1 µM (active) | EC50 [9]: 0.837 µM (active) | AC50 [10]: 1.11 µM (active) | AC50 [11]: > 52 µM (inactive) | EC50 (Mu-type opioid receptor): 44.8 µM (inactive) | EC50 [12]: > 92.5 µM (inactive) | EC50 [13]: 0.113 µM (active)

Clc1ccc(/C=N/Nc2ncnc3ccccc23)cc1Cl
EC50 (H4): 7.13 µM (active) | IC50 (HEK293): > 67.5 µM (inactive) | EC50 [14]: 0.181 µM (active) | IC50 [15]: > 67.5 µM (inactive)

CCn1c(/C=C/Nc2ccccc2)[n+](CC)c2cc(Cl)c(Cl)cc21
AC50 (A-375): 34.8 µM (active) | AC50 [4]: 14.5 µM (active) | IC50 (Protein Wnt-3a): 7.29 µM (active) | EC50 [16]: 2.4 µM (active) | EC50 [17]: 1.68 µM (active)

Cc1ccnc(NC(=O)c2ccccc2NC(=O)c2ccc(Cl)cc2Cl)c1
EC50 [1]: > 120 µM (not active) | EC50 (BJ [18]): 34.8 µM (inconclusive) | EC50 (BJ [19]): 4.38 µM (active) | EC50 [5]: > 120 µM (not active) | EC50 (BJ [20]): 0.573 µM (active) | EC50 [21]: 2.83 µM (active) | EC50 (BJ [22]): 2.87 µM (active) | EC50 [13]: 10.6 µM (inconclusive)
